Experiment [1] addresses T1, TMEM16A (Rattus norvegicus, UniProt D4A915).
T1 construct: gene Ano1; full-length (NM_01107564.1), stably expressed in a cell line
T1 sequence (D4A915 1-1105): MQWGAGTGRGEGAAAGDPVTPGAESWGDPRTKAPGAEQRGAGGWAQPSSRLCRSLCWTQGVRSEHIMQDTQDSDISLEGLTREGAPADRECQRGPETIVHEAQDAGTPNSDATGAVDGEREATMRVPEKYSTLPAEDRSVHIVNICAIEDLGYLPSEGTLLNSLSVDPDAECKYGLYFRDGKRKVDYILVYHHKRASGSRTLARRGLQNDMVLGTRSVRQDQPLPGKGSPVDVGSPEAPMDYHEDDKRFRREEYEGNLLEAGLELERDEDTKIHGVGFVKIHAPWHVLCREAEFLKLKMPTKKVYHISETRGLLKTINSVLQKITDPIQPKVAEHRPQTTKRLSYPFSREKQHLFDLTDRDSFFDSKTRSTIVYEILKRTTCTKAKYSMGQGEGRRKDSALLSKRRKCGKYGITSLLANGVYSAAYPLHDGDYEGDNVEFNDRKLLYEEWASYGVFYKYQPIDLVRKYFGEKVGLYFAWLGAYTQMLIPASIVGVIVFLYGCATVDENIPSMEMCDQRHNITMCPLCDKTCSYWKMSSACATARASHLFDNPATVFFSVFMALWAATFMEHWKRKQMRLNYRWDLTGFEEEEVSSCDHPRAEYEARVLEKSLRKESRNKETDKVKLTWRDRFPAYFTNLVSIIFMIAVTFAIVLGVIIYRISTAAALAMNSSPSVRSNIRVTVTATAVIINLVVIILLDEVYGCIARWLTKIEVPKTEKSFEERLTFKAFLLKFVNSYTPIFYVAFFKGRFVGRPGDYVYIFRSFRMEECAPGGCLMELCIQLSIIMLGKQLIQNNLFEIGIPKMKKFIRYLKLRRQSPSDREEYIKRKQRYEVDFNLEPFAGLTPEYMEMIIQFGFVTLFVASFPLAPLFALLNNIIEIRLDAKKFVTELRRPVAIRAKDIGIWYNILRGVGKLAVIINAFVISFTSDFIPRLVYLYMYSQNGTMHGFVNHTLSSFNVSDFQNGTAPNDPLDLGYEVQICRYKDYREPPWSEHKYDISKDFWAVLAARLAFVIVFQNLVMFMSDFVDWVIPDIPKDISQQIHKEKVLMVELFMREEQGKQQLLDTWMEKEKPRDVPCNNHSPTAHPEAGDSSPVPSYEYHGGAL
The experiment is described as follows: QPatch automated whole-cell patch clamp, recombinant channel (potentiator, maximum […] efficacy). The experiment is classed as cell-based. In general terms: Patch clamp records ionic current or voltage across a cell membrane.

In experiment [2] the target is T2, TMEM16A (Mus musculus, UniProt Q8BHY3).
T2 construct: gene Ano1; full-length (NM_178642.5), stably expressed in CHO cells
T2 sequence (Q8BHY3 1-960): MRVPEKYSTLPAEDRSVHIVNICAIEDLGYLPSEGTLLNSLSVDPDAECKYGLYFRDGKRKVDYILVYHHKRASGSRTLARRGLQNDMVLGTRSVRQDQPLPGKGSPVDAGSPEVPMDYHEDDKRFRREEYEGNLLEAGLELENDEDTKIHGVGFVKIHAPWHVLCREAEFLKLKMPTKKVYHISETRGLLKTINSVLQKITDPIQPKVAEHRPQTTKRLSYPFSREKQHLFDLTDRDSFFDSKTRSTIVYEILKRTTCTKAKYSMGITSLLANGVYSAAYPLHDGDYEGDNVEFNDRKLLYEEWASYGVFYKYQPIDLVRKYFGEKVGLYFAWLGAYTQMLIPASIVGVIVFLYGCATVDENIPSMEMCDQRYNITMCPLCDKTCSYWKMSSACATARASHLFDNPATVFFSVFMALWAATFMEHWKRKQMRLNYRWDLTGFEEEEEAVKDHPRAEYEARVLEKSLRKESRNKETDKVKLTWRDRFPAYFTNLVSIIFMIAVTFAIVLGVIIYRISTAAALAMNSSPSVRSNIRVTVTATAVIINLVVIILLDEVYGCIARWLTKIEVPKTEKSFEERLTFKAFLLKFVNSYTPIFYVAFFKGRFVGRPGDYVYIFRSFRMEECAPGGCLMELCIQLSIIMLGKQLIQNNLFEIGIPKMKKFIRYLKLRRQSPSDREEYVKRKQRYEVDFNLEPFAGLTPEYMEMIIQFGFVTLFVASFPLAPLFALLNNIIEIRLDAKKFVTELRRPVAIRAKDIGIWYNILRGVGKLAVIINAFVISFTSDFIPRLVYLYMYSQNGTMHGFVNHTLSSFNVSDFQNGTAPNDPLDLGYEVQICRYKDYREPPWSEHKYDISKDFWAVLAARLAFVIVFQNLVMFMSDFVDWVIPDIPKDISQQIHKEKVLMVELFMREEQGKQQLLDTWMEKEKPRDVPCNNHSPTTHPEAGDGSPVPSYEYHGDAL
Described as above. The experiment is classed as cell-based.

Usually EC50 stands for the concentration at which the effect is half-maximal.

Consider ETX001, for which the EC50 on TMEM16A [1] was determined as 88 nM. Take ETX004: the EC50 on TMEM16A [2] was determined as 38 nM.

The values above are taken from publication PMC7429354, “Potentiating TMEM16A does not stimulate airway mucus secretion or bronchial and pulmonary arterial smooth muscle contraction” (FASEB BioAdvances, 2020).
